Test results: ChEMBL document CHEMBL5303711, “ECBD screening data for assay EOS300108” (2023)
Structures can show the parent of a compound that is named as a salt. Activity calls are given as the source filed them. No rule for the calls is given here.

Assay: Cytotoxicity activity against human HepG2 cells assessed by CellTiter-Glo luminescent cell viability assay.
Assay type: toxicity, cell-based
Design: assay stage confirmatory assay, source tissue liver
Conditions: HepG2 cells, read-out: IC50 relative

SMILES	CC50
CCCS(=O)(=O)N1CCc2ccc(NC(=O)Nc3cccc(C#N)c3)cc21	10.2 µM (active)
Cc1cccc(C(=O)Nc2ccc(C(=O)Nc3cccnc3)cc2)n1	5.8 µM (active)
O=C(Nc1ccc(Cl)c(Cl)c1)Nc1ccc(Cl)c(Cl)c1	13.1 µM (active)
CCS(=O)(=O)N1CCc2ccc(NC(=O)Nc3cccc(C#N)c3)cc21	5.2 µM (active)
c1ccc(COc2ccc3c(c2)CCNCC3)cc1	10.8 µM (active)
COC(=O)C[C@](O)(CCCC(C)(C)O)C(=O)O[C@@H]1C(OC)=C[C@]23CCCN2CCc2cc4c(cc2[C@H]13)OCO4 [OMACETAXINE MEPESUCCINATE]	0.2 µM (active)
NC1CCN(S(=O)(=O)c2ccc([C@H]3[C@@H]4CCCC[C@@H]43)cc2)CC1	12 µM (active)
c1nc(N2CCN(Cc3ccc4c(c3)OCO4)CC2)c2ccsc2n1	5.1 µM (active)
CCOc1ncccc1C(=O)Nc1cc(F)ccc1F	1.3 µM (active)
Cc1occc1C(=O)NC1CCN(CCC(=O)c2ccccc2)CC1	9.5 µM (active)
CC(C)c1cnn2c(NCc3ccccc3)cc(NCCCCCCN)nc12	9.3 µM (active)
COc1ccc(-c2noc(N3CCC(C(=O)N4CCN(c5ccccc5OC)CC4)CC3)n2)cc1	8 µM (active)
CCCCOc1cccc(C(=O)Nc2nc3c(s2)CN(C)CC3)c1	7.9 µM (active)
CCc1cc2c(cc1N1CCC(N3CCOCC3)CC1)C(C)(C)c1[nH]c3cc(C#N)ccc3c1C2=O [ALECTINIB]	18.9 µM (inactive)
CC(=O)Nc1cccc(-n2c(=O)n(C3CC3)c(=O)c3c(Nc4ccc(I)cc4F)n(C)c(=O)c(C)c32)c1 [TRAMETINIB]	< 0.1 µM (active)
Nc1nc(Nc2ccc3c(c2)OCCO3)nc2ccccc12	8.7 µM (active)
CC(C)(C)c1nccc(NC(=O)c2ccc(F)c(C#N)c2)n1	1.2 µM (active)
CCN1CCN(c2ccc(C(=O)Nc3nc(-c4cccnc4)cs3)cc2)CC1	5.8 µM (active)
COc1ccc(-c2cn3nc(N4CCC(C(=O)NCCN(C)C)CC4)sc3n2)cc1	3.6 µM (active)
CCCCCCCC(=O)N[C@H](CN1CCCC1)[C@H](O)c1ccc2c(c1)OCCO2	15.7 µM (inactive)
Cc1cc(N(C)C)nc(N2CCN(C(=O)c3ccc(C(C)(C)C)cc3)CC2)n1	5.1 µM (active)
CCN(c1ccccc1C)S(=O)(=O)c1cn(C)nn1	19.9 µM (inactive)
COc1cc(C(=O)N2CC[C@@H](O)[C@@H](N)C2)cc2nc(-c3cc4ccccc4n3CC3CC3)n(C)c12	6.1 µM (active)

SMILES	CC50
CN(C)c1ccc(C(O)(c2ccc(N(C)C)cc2)c2ccc(N(C)C)cc2)cc1 [METHYLROSANILINE]	2 µM (active)
Oc1cccc2ccc(Nc3ccccn3)nc12	0.7 µM (active)
Nc1ccc2cc3ccc(N)cc3nc2c1	3.2 µM (active)
Cc1cccc(NC(=O)Nc2ccc3c(c2)N(S(C)(=O)=O)CC3)c1	3.3 µM (active)
Cn1c(=O)c2c(ncn2CCn2ncc(Cl)c(Cl)c2=O)n(C)c1=O	11.7 µM (active)
CCN1C[C@H](CN(C)CC(=O)c2c(N)n(C3CC3)c(=O)[nH]c2=O)Oc2ccccc21	13.8 µM (inactive)
CC1(C)CC=C(c2nc(C3CC(C)(C)OC(C)(C)C3)ccc2NC(=O)c2nc(C#N)c[nH]2)CC1 [EDICOTINIB]	2.8 µM (active)
CN(C)S(=O)(=O)c1cccc(-n2sc3ccccc3c2=O)c1	9.3 µM (active)
CCC1=NNc2cccc3c(OC)ccc1c23	8.8 µM (active)
NC(=O)c1cnc(NC(=O)c2cccc(S(=O)(=O)N3CCN(c4ccccc4)CC3)c2)s1	37.1 µM (inactive)
CC(=O)N1CCN(c2ccc(OC[C@@H]3CO[C@@](Cn4ccnc4)(c4ccc(Cl)cc4Cl)O3)cc2)CC1 [LEVOKETOCONAZOLE]	11.6 µM (active)
Cc1cc(NCCCN2CCC(C)CC2)c2ccccc2n1	6.5 µM (active)
NCCCNc1nc(-c2ccccc2)nc2ccccc12	11.9 µM (active)
CCc1nc(C)c([C@H](C)N(C)Cc2cccnc2N)s1	13.8 µM (active)
COc1cc(N2CCN(C)CC2)ccc1Nc1ncc2c(n1)N(C1CCC1)C(=O)N(c1c(C)cccc1C)C2	3.3 µM (active)
C[C@H]1Cc2cc(S(N)(=O)=O)ccc2N1Cc1cc(=O)n2cc(Cl)ccc2n1	10.9 µM (active)
CCc1c2c(nc3ccc(OC(=O)N4CCC(N5CCCCC5)CC4)cc13)-c1cc3c(c(=O)n1C2)COC(=O)[C@]3(O)CC [IRINOTECAN]	10.1 µM (active)
Cc1[nH]c2ccccc2c1CN1CCN(c2ccccn2)CC1	12.9 µM (inactive)
COc1ccc(Nc2nccc(-c3ccncc3)n2)cc1	4.7 µM (active)
COc1ncccc1-c1csc(-c2ccoc2)n1	1 µM (active)
Cc1n[nH]c(C)c1S(=O)(=O)N1CCCC(C(=O)Nc2ccc(Br)cc2)C1 (configuration not stated)	26.3 µM (inactive)
CCN(CC)CCCNC(=O)C1CCN(c2nc3ccccc3n(Cc3ccccc3)c2=O)CC1	6.4 µM (active)
CCOc1ccc(-n2ccnc(NCc3ccc(OC)c(OC)c3)c2=O)cc1	5.1 µM (active)

SMILES	CC50
CNCC[C@H](Oc1cccc2ccccc12)c1cccs1 [DULOXETINE HYDROCHLORIDE]	4.3 µM (active)
CCS(=O)(=O)c1ncc(Cl)c(C(=O)Nc2ccccc2Cl)n1	2.5 µM (active)
COc1cc(/C=C/C(=O)CC(=O)/C=C/c2ccc(O)cc2)ccc1O	11.5 µM (active)
CN1C(=O)c2cccc3c(S(=O)(=O)NC4CCCCC4)ccc1c23	50 µM (inactive)
C#CCNC(=O)c1ccccc1NCc1ccc(C#N)cc1OC	1 µM (active)
CCCC(=O)Nc1ccc(Nc2nc(C)cc(N(CC)CC)n2)cc1	4.2 µM (active)
COc1cc(C(=O)NC2CCN(C)CC2)ccc1Nc1ncc2c(n1)N(C1CCCC1)CC(F)(F)C(=O)N2C	2.9 µM (active)
O=C1c2ccccc2-c2n[nH]c3cccc1c23	6.2 µM (active)
COc1cc2c(N3CCN(C(=O)Nc4ccc(OC(C)C)cc4)CC3)ccnc2cc1OCCCN1CCCCC1	7.4 µM (active)
CN(C)c1nc(Nc2cccc(O)c2)nc2ccccc12	12.7 µM (active)
CC(C)(C)c1n[nH]c2c(-c3nc4ccccc4s3)c(N)nn2c1=O	35.4 µM (inactive)
CN[C@@H](C)C(=O)N[C@H](C(=O)N1CCC[C@H]1c1nc(C(=O)c2ccc(F)cc2)cs1)C1CCCCC1 [LCL-161]	6.8 µM (active)
CCc1nnsc1C(=O)Nc1cc(-c2cccs2)n[nH]1	4.8 µM (active)
Cc1sc2c(c1C)C(c1ccc(Cl)cc1)=N[C@@H](CC(=O)NCCCCCCCCNC(=O)COc1cccc3c1C(=O)N(C1CCC(=O)NC1=O)C3=O)c1nnc(C)n1-2 (some centres not stated)	< 0.1 µM (active)
C[n+]1ccc(/C=C/c2c[nH]c3ccccc23)cc1	1.2 µM (active)
Fc1ccc2[nH]c(CCNc3ncc(Cl)cn3)nc2c1	6.7 µM (active)
O=S(=O)(Nc1cc(Sc2nc[nH]n2)c(O)c2ccccc12)c1ccc(Cl)cc1	5.7 µM (active)
Cc1cc(Nc2ccc(NC(=O)c3ccc(Nc4ccnc5ccccc45)cc3)cc2)nc(N)n1	0.4 µM (active)
Cc1ccc2nc(NCCN)c3ncc(C)n3c2c1	1.9 µM (active)
COc1ccccc1OCCOCCOCCOc1ccccc1OC	12.6 µM (inactive)
CN(C)c1ccc2nc3ccc(=[N+](C)C)cc-3sc2c1 [METHYLENE BLUE ANHYDROUS]	3 µM (active)
Cc1occc1C(=O)Nc1ccc(N2CCCC2)cn1	8.8 µM (active)

SMILES	CC50
O=C(Nc1nc2cccc(-c3ccc(CN4CCS(=O)(=O)CC4)cc3)n2n1)C1CC1 [FILGOTINIB]	6.4 µM (active)
Cc1cc(CS(=O)(=O)c2ccccc2)cc(OCc2ccc(CN3CCC[C@@H]3CO)cc2)c1	7.9 µM (active)
O=C(O)c1ccc2c(c1)nc(Nc1cccc(Cl)c1)c1ccncc12	5 µM (active)
Nc1nc(NC[C@H]2CC[C@H](CNS(=O)(=O)c3cccc4ccccc34)CC2)nc2ccccc12	2 µM (active)
CC(C)c1ccc(CNCCN2CCCCC2CO)cc1 (configuration not stated)	4.3 µM (active)
CC(C)c1cnn2c(NCc3ccccc3)cc(NC[C@H]3CCNC[C@@H]3O)nc12	0.8 µM (active)
COCC(=O)Nc1ccc(Nc2nc(C)cc(N3CCCC3)n2)cc1	3.6 µM (active)
CC(C)(C)c1ccccc1Oc1ncccc1NC(=O)Nc1ccc(OC(F)(F)F)cc1	7.9 µM (active)
Cc1cc(F)ccc1N1CCC(N[C@@H]2CCOC[C@H]2OCC2CC2)CC1	15.6 µM (inactive)
CCc1nc(N)nc(N)c1-c1ccc(Cl)cc1 [PYRIMETHAMINE]	6 µM (active)
COc1cc2nccc(Oc3ccc(NC(=O)C4(C(=O)Nc5ccc(F)cc5)CC4)cc3)c2cc1OC [CABOZANTINIB]	9.5 µM (active)
COc1ccc(NC(=O)c2nc(S(C)(=O)=O)ncc2Br)cc1	1.9 µM (active)
CC(C)Cn1c(=O)c2sccc2n2c(=O)n(CC(=O)Nc3ccc(F)cc3)nc12	50 µM (inactive)
CC[n+]1c(/C=C2/C=CN(C)c3ccccc32)ccc2ccccc21	2.3 µM (active)
O=C(NCCO)c1cccc(-c2cc(Nc3ccc(OC(F)(F)F)cc3)ncn2)c1	19.4 µM (inactive)
COC[C@H]1OC(=O)c2coc3c2[C@@]1(C)C1=C(C3=O)[C@@H]2CCC(=O)[C@@]2(C)C[C@H]1OC(C)=O [WORTMANNIN]	7.4 µM (active)
CON(C)C(=O)N1N=C(c2cc(F)ccc2F)S[C@@]1(CCCN)c1ccccc1 [FILANESIB]	11 µM (active)
COC[C@H](C)Nc1cccc(N(C)C(C)C)c1	8.6 µM (active)
COc1ccc(C(O)CN2CCN(c3cc(C)ccc3C)CC2)cc1OC (configuration not stated)	10.2 µM (active)
O=C(CCN1CCCCC1)c1cc2ccccc2o1	21.1 µM (inactive)
CCc1ccc(-c2cc3c(=O)n(CC(=O)NCCCN4CCCC4)nc(C)n3n2)cc1	11.4 µM (active)
COc1ccc2nc(NC(=O)N(C)Cc3nc(C)cs3)sc2c1	12.7 µM (inactive)
